Each block holds one compound with its values, some of them ahead of it. Activity calls are given as the source filed them. The rule behind the calls is not given here.
Assays:
[1] = target: 5-hydroxytryptamine receptor 6 (Homo sapiens, UniProt P50406); assay: Inhibition of 5-HT6 receptor (unknown origin) by PDSP assay
[2] = target: T1, Alpha-2A adrenergic receptor (Homo sapiens, UniProt P08913); assay: Inhibition of adrenergic alpha2A receptor (unknown origin) by PDSP assay
T1 sequence (P08913 whole entry): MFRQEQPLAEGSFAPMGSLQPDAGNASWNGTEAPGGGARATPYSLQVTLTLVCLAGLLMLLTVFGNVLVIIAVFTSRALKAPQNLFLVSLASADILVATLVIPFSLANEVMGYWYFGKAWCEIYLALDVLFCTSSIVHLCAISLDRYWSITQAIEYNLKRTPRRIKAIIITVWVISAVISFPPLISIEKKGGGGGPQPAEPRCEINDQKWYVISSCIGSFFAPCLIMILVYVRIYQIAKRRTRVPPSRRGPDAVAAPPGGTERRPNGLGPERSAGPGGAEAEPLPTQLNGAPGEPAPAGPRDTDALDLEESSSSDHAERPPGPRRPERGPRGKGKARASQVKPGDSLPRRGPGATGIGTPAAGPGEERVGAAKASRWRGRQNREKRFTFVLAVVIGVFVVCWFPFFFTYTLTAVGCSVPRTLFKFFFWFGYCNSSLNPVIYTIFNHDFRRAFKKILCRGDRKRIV

Homo sapiens = species on record: Homo sapiens; assay: Inhibition of NMDA receptor PCP binding site (unknown origin) at 10 uM by PDSP assay relative to control
[3] = Inhibition of Ca2+ channel (unknown origin) by PDSP assay; set-up: species or system Homo sapiens
[4] = target: T2, Alpha-1B adrenergic receptor (Homo sapiens, UniProt P35368); assay: Inhibition of adrenergic alpha1B receptor (unknown origin) by PDSP assay
T2 sequence (P35368 whole entry): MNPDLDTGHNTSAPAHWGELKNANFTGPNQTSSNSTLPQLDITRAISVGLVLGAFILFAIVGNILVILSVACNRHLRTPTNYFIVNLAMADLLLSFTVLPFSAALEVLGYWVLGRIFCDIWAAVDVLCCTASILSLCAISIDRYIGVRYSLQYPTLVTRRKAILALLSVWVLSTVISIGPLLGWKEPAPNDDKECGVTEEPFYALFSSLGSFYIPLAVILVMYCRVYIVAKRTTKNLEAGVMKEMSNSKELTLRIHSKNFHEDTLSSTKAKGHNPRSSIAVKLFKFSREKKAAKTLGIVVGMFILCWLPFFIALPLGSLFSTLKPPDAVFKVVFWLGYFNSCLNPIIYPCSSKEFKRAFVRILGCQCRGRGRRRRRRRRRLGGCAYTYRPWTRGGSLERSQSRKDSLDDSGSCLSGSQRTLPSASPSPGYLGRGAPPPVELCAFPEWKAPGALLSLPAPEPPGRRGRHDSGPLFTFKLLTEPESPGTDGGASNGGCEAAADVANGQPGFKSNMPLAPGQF

RAW264.7 [5] = assay: Neuroprotective activity in mouse RAW264.7 cells assessed as inhibition of LPS-stimulated nitric oxide release up to 100 uM after 20 to 24 hrs by Griess assay; type: functional, cell-based
[6] = target: 5-hydroxytryptamine receptor 2B (Homo sapiens, UniProt P41595); assay: Inhibition of 5-HT2B receptor (unknown origin) by PDSP assay
RAW264.7 [7] = assay: Neuroprotective activity in mouse RAW264.7 cells assessed as inhibition of LPS-stimulated nitric oxide release at 75 uM after 20 to 24 hrs by Griess assay relative to control; type: functional
Histamine H3 receptor = Histamine H3 receptor (Homo sapiens, UniProt Q9Y5N1); assay: Inhibition of histamine H3 receptor (unknown origin) by PDSP assay
[8] = target: Sodium-dependent noradrenaline transporter (Homo sapiens, UniProt P23975); assay: Displacement of [3H]-nisoxetine from human NET expressed in HEK cell membranes; set-up: species or system HEK293
Histamine H4 receptor = Histamine H4 receptor (Homo sapiens, UniProt Q9H3N8); assay: Inhibition of histamine H4 receptor (unknown origin) by PDSP assay
D(4) dopamine receptor = D(4) dopamine receptor (Homo sapiens, UniProt P21917); assay: Inhibition of dopamine D4 receptor (unknown origin) by PDSP assay
[9] = target: 5-hydroxytryptamine receptor 5A (Homo sapiens, UniProt P47898); assay: Inhibition of 5-HT5A receptor (unknown origin) by PDSP assay
[10] = target: 5-hydroxytryptamine receptor 7 (Homo sapiens, UniProt P34969); assay: Inhibition of 5-HT7 receptor (unknown origin) by PDSP assay
[11] = Inhibition of rat brain BZP receptor by PDSP assay
[12] = target: 5-hydroxytryptamine receptor 1B (Homo sapiens, UniProt P28222); assay: Inhibition of 5-HT1B receptor (unknown origin) by PDSP assay
RAW264.7 [13] = assay: Neuroprotective activity in mouse RAW264.7 cells assessed as inhibition of LPS-stimulated nitric oxide release at 100 uM after 20 to 24 hrs by Griess assay relative to control; type: functional
[14] = target: 5-hydroxytryptamine receptor 1A (Homo sapiens, UniProt P08908); assay: Inhibition of 5-HT1A receptor (unknown origin) by PDSP assay
Mu-type opioid receptor = Mu-type opioid receptor (Homo sapiens, UniProt P35372); assay: Inhibition of mu opioid receptor (unknown origin) by PDSP assay
[15] = target: Delta-type opioid receptor (Homo sapiens, UniProt P41143); assay: Inhibition of delta opioid receptor (unknown origin) by PDSP assay
Chain of Delta-type opioid receptor (P41143 whole entry): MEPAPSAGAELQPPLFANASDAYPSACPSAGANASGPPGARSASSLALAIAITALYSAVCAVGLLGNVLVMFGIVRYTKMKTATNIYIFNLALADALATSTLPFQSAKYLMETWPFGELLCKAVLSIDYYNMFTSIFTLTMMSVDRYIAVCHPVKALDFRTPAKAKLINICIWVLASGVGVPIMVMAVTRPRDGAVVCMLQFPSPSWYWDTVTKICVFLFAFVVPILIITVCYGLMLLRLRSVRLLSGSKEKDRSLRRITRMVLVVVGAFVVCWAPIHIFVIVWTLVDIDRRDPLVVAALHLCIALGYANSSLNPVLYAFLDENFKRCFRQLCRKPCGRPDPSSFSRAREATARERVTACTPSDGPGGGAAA

Chain of Sodium-dependent noradrenaline transporter (P23975 whole entry): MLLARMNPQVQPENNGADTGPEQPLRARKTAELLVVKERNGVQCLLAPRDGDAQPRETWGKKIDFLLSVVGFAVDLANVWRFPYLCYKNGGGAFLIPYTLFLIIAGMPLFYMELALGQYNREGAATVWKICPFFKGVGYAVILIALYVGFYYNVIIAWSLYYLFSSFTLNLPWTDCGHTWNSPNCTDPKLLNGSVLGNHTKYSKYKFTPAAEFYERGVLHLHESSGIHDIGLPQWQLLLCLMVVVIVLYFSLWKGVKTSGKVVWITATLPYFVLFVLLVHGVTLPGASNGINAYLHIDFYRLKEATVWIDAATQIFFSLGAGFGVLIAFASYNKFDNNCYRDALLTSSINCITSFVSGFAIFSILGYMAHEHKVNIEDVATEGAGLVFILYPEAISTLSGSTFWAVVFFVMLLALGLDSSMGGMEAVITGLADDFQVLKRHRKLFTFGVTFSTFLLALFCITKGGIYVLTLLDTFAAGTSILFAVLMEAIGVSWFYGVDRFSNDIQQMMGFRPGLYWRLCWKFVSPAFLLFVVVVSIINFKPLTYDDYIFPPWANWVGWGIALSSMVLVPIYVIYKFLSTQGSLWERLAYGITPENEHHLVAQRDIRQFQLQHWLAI
Chain of 5-hydroxytryptamine receptor 2B (P41595 whole entry): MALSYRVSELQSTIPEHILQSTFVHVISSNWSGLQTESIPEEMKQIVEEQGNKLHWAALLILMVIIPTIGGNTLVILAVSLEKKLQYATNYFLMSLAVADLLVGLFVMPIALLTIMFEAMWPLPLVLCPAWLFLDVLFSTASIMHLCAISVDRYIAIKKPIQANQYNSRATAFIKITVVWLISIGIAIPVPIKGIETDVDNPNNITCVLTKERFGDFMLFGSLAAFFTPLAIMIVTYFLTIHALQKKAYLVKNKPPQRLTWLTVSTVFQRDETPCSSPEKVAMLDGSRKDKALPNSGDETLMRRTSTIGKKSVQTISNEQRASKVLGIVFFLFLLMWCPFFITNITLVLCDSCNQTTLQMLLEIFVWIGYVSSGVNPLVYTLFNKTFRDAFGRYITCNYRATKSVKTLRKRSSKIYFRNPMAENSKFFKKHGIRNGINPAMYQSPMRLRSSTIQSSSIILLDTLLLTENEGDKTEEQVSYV
Chain of D(4) dopamine receptor (P21917 whole entry): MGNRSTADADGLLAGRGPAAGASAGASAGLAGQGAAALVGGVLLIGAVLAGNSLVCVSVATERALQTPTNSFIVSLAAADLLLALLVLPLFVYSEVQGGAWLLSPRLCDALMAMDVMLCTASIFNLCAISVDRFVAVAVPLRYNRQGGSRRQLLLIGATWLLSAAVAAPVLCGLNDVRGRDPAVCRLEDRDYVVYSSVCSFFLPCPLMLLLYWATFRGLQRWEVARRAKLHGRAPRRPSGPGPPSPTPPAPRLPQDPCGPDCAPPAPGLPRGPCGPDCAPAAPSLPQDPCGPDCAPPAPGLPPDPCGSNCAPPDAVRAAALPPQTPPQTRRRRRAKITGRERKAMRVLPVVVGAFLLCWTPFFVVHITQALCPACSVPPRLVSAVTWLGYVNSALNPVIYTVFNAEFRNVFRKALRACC
Chain of 5-hydroxytryptamine receptor 5A (P47898 whole entry): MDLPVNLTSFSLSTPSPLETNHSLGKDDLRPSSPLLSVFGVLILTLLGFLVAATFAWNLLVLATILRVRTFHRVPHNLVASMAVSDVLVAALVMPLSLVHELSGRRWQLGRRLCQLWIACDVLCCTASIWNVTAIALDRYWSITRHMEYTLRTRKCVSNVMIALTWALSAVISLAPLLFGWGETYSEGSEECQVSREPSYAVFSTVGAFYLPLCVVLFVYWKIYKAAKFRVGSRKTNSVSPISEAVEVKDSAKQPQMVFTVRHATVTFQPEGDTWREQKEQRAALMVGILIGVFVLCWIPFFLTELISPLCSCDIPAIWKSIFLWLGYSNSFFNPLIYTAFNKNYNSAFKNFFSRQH
Chain of 5-hydroxytryptamine receptor 6 (P50406 whole entry): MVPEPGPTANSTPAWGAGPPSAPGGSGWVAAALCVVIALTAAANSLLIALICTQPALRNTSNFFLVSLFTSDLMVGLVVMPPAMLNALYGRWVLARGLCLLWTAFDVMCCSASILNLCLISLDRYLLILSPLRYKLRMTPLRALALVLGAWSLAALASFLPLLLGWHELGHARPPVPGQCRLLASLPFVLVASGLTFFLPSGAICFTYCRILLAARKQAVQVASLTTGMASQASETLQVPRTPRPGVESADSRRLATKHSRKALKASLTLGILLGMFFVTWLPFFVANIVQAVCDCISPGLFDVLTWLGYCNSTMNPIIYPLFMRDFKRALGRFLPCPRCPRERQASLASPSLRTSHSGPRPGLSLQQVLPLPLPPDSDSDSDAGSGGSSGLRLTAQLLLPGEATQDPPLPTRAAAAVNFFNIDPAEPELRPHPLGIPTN
Chain of Mu-type opioid receptor (P35372 whole entry): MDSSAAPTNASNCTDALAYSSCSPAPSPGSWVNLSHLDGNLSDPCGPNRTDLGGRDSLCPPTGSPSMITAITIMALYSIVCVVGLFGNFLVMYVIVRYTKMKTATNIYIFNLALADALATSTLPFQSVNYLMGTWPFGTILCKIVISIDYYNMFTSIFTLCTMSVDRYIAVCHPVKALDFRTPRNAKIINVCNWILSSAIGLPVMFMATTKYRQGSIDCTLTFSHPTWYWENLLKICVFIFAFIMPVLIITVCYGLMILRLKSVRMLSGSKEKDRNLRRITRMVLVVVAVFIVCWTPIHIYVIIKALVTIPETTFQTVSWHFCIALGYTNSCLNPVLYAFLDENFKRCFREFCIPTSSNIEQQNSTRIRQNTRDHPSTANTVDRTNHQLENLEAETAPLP
Chain of 5-hydroxytryptamine receptor 1B (P28222 whole entry): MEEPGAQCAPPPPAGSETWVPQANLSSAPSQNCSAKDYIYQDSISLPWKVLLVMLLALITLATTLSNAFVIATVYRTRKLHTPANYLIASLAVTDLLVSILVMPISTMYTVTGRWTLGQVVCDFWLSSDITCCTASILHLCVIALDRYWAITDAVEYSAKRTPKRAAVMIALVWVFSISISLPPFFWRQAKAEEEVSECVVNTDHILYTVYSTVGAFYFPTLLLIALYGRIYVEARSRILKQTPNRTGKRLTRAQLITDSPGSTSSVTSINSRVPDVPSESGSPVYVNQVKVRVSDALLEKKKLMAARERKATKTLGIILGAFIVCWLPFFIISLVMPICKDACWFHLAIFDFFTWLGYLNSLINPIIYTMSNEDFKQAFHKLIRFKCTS
Chain of 5-hydroxytryptamine receptor 1A (P08908 whole entry): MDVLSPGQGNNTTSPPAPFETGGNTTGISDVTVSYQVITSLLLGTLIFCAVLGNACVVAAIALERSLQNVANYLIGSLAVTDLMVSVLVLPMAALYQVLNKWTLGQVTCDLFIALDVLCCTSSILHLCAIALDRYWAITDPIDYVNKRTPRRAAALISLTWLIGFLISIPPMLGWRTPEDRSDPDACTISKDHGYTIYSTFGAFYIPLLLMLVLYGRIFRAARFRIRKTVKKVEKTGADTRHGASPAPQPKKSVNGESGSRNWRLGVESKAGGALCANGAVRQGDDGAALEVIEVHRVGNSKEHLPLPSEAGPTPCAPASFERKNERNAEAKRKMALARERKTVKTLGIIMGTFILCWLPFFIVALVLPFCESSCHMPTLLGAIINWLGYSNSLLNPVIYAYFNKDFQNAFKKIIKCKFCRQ
Chain of 5-hydroxytryptamine receptor 7 (P34969 whole entry): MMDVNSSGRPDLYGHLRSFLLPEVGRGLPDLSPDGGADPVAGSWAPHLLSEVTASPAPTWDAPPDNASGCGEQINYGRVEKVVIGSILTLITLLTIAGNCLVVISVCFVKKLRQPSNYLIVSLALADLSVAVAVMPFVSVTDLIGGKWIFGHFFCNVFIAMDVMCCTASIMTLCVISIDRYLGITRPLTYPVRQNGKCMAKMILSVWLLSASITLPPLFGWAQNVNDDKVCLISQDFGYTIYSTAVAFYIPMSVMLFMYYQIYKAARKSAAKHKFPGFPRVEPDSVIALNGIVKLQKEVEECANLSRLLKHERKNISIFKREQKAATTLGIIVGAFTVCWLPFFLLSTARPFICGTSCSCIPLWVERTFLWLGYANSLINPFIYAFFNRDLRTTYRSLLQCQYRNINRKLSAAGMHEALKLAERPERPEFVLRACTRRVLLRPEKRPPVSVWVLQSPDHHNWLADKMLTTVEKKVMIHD
Chain of Histamine H3 receptor (Q9Y5N1 whole entry): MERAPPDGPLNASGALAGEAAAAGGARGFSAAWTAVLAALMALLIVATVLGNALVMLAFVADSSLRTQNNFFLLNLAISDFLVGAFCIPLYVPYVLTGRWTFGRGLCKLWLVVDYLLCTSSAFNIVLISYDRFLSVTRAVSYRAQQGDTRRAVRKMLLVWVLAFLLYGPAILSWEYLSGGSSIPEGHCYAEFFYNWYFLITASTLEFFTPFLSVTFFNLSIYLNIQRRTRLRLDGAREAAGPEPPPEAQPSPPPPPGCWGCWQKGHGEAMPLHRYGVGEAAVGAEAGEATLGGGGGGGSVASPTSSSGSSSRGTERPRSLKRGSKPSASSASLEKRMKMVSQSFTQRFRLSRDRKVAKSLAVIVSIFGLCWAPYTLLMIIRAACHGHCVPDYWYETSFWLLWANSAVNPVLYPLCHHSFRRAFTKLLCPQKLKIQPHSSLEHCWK

SMILES: c1ccc(CN[C@H]2C3C4CC5C6C4CC3C6C52)cc1 (stereo partly specified)
Ki [3]: 3.62 µM
Ki [4]: 6.2 µM
inhibition (RAW264.7 [5]): inactive

SMILES: COc1cc(CN[C@H]2C3C4CC5C6C4CC3C6C52)cc(OC)c1OC (stereo partly specified)
Ki [6]: 1.96 µM
inhibition (RAW264.7 [5]): inactive

SMILES: CN(CC1CCCCC1)[C@H]1C2C3CC4C5C3CC2C5C41 (stereo partly specified)
Ki [4]: 0.0094 µM
inhibition at 75 µM (RAW264.7 [7]): 88.3%

SMILES: c1ccc(CCN[C@H]2C3C4CC5C6C4CC3C6C52)nc1 (stereo partly specified)
Ki [1]: > 10 µM
Ki (Histamine H4 receptor): > 10 µM
Ki (D(4) dopamine receptor): > 10 µM
Ki [4]: 3.44 µM

SMILES: c1cc2c(cc1CN[C@H]1C3C4CC5C6C4CC3C6C51)OCO2 (stereo partly specified)
Ki [9]: 6.06 µM
Ki [8]: 7.35 µM

SMILES: CN(CCc1ccccc1)[C@H]1C2C3CC4C5C3CC2C5C41 (stereo partly specified)
Ki [10]: 4.42 µM
Ki [6]: 2.71 µM

SMILES: CN(Cc1ccc2c(c1)OCO2)[C@H]1C2C3CC4C5C3CC2C5C41 (stereo partly specified)
Ki [11]: 4.88 µM

SMILES: c1ccc(CCN[C@H]2C3C4CC5C6C4CC3C6C52)cc1 (stereo partly specified)
Ki [12]: > 10 µM
Ki (D(4) dopamine receptor): > 10 µM
Ki [2]: > 10 µM
inhibition at 100 µM (RAW264.7 [13]): 17.5%

SMILES: CN(CCc1ccccn1)[C@H]1C2C3CC4C5C3CC2C5C41 (stereo partly specified)
Ki (Mu-type opioid receptor): 2.12 µM
Ki [15]: 2.79 µM

SMILES: C1C2C3CC4C2C2C1C3[C@H](NCC13C5C6C7C5C1C7C63)C42 (stereo partly specified)
Ki [9]: 7.5 µM

Now from value to compound:

Ki [1]: > 10 µM
Ki [2]: 5.21 µM
SMILES: COc1ccc(CN[C@H]2C3C4CC5C6C4CC3C6C52)cc1OC (stereo partly specified)

inhibition (Homo sapiens): < 50%
SMILES: CN(Cc1ccccc1)[C@H]1C2C3CC4C2C(=O)C2C4C3C21 (stereo partly specified)

Ki [2]: > 10 µM
SMILES: COc1ccc(CN(C)[C@H]2C3C4CC5C3C(=O)C3C5C4C32)cc1OC (stereo partly specified)

Ki (Histamine H3 receptor): 2.05 µM
Ki [2]: > 10 µM
Ki [8]: 8.53 µM
SMILES: CN(CCCc1cccc(F)c1)[C@H]1C2C3CC4C2C(=O)C2C4C3C21 (stereo partly specified)

Ki [14]: > 10 µM
SMILES: CN(Cc1cccc(F)c1)[C@H]1C2C3CC4C2C(=O)C2C4C3C21 (stereo partly specified)

Reference: ChEMBL document CHEMBL2429832, “N-substituted 8-aminopentacyclo[5.4.0.0(2,6).0(3,10).0(5,9)]undecanes as σ receptor ligands with potential neuroprotective effects” (Bioorg Med Chem, 2013)
